{"source": "paper PMC7961786", "about": "“Magic Peptide: Unique Properties of the LRR11 Peptide in the Activation of Leukotriene Synthesis in Human Neutrophils” (International Journal of Molecular Sciences, 2021)", "key": {"[1]": {"system": "PMNLs, 5-LOX product formation", "assay": "5-LOX product formation in PMNLs stimulated by calcium ionophore A23187", "assay_type": "cell-based, human", "conditions": "1 µM A23187 alone for 10 min, after 30 min at 37 °C without inhibitor; mean ± SEM, three independent experiments", "description": "Human neutrophils were isolated from freshly taken citrate-anticoagulated peripheral blood from healthy individuals using standard methods. Leukocyte-rich plasma was prepared by sedimentation of erythrocytes with 3% dextran T-500 at room temperature. For purification of granulocytes, centrifugation through Ficoll-Paque (density 1.077 g/mL) was used, followed by hypotonic lysis of the remaining erythrocytes. PMNLs were washed twice in PBS, resuspended at 10^7 cells/mL (96–97% purity, 98–99% viability) in Dulbecco’s PBS containing 1 mg/mL glucose (no CaCl2) and stored at room temperature. All methods were performed in accordance with the relevant instructions and regulations of the Ministry of Health of the Russian Federation and local legislation.\n(§1) To purify the water/methanol extracts, solid-phase extraction was used on Sep-Pak C18 cartridges (500 mg; Macherey-Nagel, Dueren, Germany), which were conditioned first with methanol, and then with water. Major 5-LOX metabolites were identified by comparing retention times with those of known compounds, as previously described."}, "5′-biotinylated C-CpG": {"system": "5′-biotinylated C-CpG", "assay": "TSM acoustic biosensor, peptide binding to immobilized C-CpG", "conditions": "up to 100 nM URP, immobilized C-CpG; Figure 4A", "text": "(§2) To characterize the interaction of the studied synthetic ODNs with the LRR11 peptide, we applied the thickness shear mode (TSM) acoustic biosensor method, which is based on the investigation of ultrasonic waves in piezoelectric materials such as AT-cut quartz. This approach involved immobilizing a 5′-biotinylated ODN on the surface of TSM transducer covered by NeutrAvidin and then adding the LRR11 peptide. An unrelated peptide (URP) with a random primary structure ([…]) was used as a negative control. The measurement procedure was divided into several steps, in which each immobilization stage was followed by washing with an appropriate buffer solution; when peptide solutions at different concentrations (from 1 to 100 nM) were added to the surface-modified TSM transducer, a wash with Hanks buffer was used before increasing the peptide concentration.\n(§3) Based on Langmuir isotherm Equation (1), (1) Δfcc=Δfsmaxc/KD+c where Δfs(c) is the frequency change at a certain peptide concentration under equilibrium conditions, (Δfs)max is the maximum frequency change, c is the peptide concentration, and KD is the equilibrium constant of dissociation, we estimated the (Δfs)max and KD values for binding of the LRR11 peptide to C-CpG and B-CpG (Table 3).\nUsing Sauerbrey’s Equation (2), (2) Δf=−2f02Δm/Aμqρq where f0 is the fundamental resonance frequency (in our case 8 MHz), Δm is the change in mass (in grams) of the adsorbed layer on the crystal surface, A is the effective crystal area (in our case 0.2 cm^2), μq = 2.947 × 10^11 g × cm^−1s^−2 is the shear modulus of elasticity, and ρq = 2.648 g × cm^−3 is the crystal density, surface concentrations of NeutrAvidin, ODN and LRR11 peptide were estimated based on changes of resonance frequency (Figure 4). According to Equation (2), the surface density of molecules, σ (in molecules/cm^2), can be calculated as σ = ΔmNA/(A × Mw), where NA is Avogadro’s number (=6.023 × 10^23 mol^−1), and Mw represents the molecular weight of the corresponding compound (NeutrAvidin: 65 kDa, 5′-biotinylated C-CpG: 7115.4 Da, and LRR11: 3421 Da). Based on this approach, we obtained the following surface concentration values: 1.94 × 10^13 cm^−2 for NeutrAvidin, 3.37 × 10^13 cm^−2 for C-CpG and 2.4 × 10^13 cm^−2 for LRR11. The NeutrAvidin has four binding sites, two of which are available for biotinylated ODN binding. This is due to the fact that the other two sites are inaccessible due to NeutrAvidin chemisorption on the TSM surface. Thus, the number of available binding sites for the ODN is 3.88 × 10^13 cm^−2. […] Therefore, the surface of the TSM transducer is practically completely saturated by C-CpG. Estimation of the surface concentration of LRR11 evidences that at 50 nM concentration of this peptide, it occupies almost 70.6% of the ODN molecules. […]"}, "5′-biotinylated B-CpG": {"system": "5′-biotinylated B-CpG", "assay": "TSM acoustic biosensor, peptide binding to immobilized B-CpG", "conditions": "URP, immobilized B-CpG", "text": "as §2, §3\nEight MHz AT-cut piezoelectric quartz crystal transducer was obtained from CH Instruments, Austin, TX, USA. The transducer was covered on both sides with thin layers of gold that served as electrodes (working area 0.2 cm^2). Prior ODNs immobilization, the crystal was carefully cleaned with basic Piranha solution (29% NH3, 30% H2O and H2O2 with volumetric 1:5:1 ratio, respectively) for 25 min. After the thorough cleaning, the crystal was positioned between two silicon O-rings in a flow-through cell. The analyte was injected into the cell using a Genie Plus syringe pump (Kent Scientific, Torrington, CT, USA) at a flow rate of 50 μL/min. Each solution was applied until the resonance frequency stabilized. The surface of the transducer was first washed with deionized water, and then 125 μg/mL NeutrAvidin (WWR International GmbH, Vienna, Austria) solution in water was applied. Approximately 15 min were required to stabilize the signal at a constant NeutrAvidin flow rate. This was followed by washing with water to rinse out all non-chemisorbed NeutrAvidin molecules. Immobilization of ODN on the gold surface of the crystals is accomplished using avidin–biotin interactions. A 1 μM 5′-biotinylated ODN solution was injected over the neutravidin-modified surface and subsequently the crystal was washed again with water. The system was then equilibrated using Hanks buffer solution. This buffer was suitable for studying LRR11–ODN binding. Then LRR11 was used at concentrations of 1, 5, 10, 50 and 100 nM […] in Hanks buffer. After each addition of LRR11, the sensor surface was washed with Hanks buffer and LRR11 with the higher concentration was added. All binding experiments were carried out at room temperature. Buffer and sample solutions were introduced in a flow-through format. A network analyzer 8712ES (Agilent Technologies, Santa Clara, CA, USA) was used to measure the impedance properties of the sensor and determine fS and Rm."}, "[2]": {"system": "5′-biotinylated G-rich ODN", "assay": "TSM acoustic biosensor, peptide binding to immobilized G-rich ODN", "conditions": "URP, immobilized G-rich ODN", "text": "as §2\n(§4) Eight MHz AT-cut piezoelectric quartz crystal transducer was obtained from CH Instruments, Austin, TX, USA. The transducer was covered on both sides with thin layers of gold that served as electrodes (working area 0.2 cm^2). Prior ODNs immobilization, the crystal was carefully cleaned with basic Piranha solution (29% NH3, 30% H2O and H2O2 with volumetric 1:5:1 ratio, respectively) for 25 min. After the thorough cleaning, the crystal was positioned between two silicon O-rings in a flow-through cell. […]"}, "NeutrAvidin": {"system": "NeutrAvidin", "assay": "TSM acoustic biosensor, unspecific binding to NeutrAvidin in the absence of ODNs", "text": "as §2, §4"}, "[3]": {"system": "human neutrophils (PMNLs), 5-LOX product synthesis", "assay": "5-LOX metabolite synthesis in human neutrophils stimulated with opsonized S. typhimurium (HPLC)", "assay_type": "cell-based", "description": "Figure 1 Effects of LRR11 and ODNs on the formation of LTB4 (A,B) and the sum of 5-LOX metabolites (ω-OH-LTB4, LTB4 and its isomers, and 5-HETE) (C) in human PMNLs. PMNLs (2 × 10^7) were incubated for 15 min at 37 °C without (black bars) or with 1 μM LRR11 (A, LRR11_first); then ODNs and LRR11 or LPS were added; various ways of adding ODN and LRR11 peptide are indicated. In control samples, Hanks’ solution was added instead of ODNs. After 20 min, 0.5 × 10^9 S. typhimurium bacterial cells were added for a further 15 min. The 5-LOX products were determined using HPLC. Values indicate mean ± SEM of five independent experiments performed in duplicate. * p < 0.05, ** p < 0.01, *** p < 0.005, compared with the control. # p < 0.05, ## p < 0.01 for pairs of data compared as indicated by two-way ANOVA followed by Tukey’s multiple comparison test.\nFigure 3 Synthesis of the 5-LOX metabolites in PMNLs exposed to opsonized S. typhimurium bacteria in the presence of the RAGE antagonist FPS-ZM1. PMNLs (2 × 10^7) were incubated for 15 min at 37 °C without additives or with 0.15 µM FPS-ZM1, for the next 20 min the mixture was incubated with 1 µM ODNs without (black bars) or with 1 µM LRR11 (gray bars) before adding 5 × 10^8 S. typhimurium for 15 min. In control samples, Hanks’ solution was added instead of ODNs. The 5-LOX products were determined using HPLC. Graphical data are presented for LTB4 (A) or the sum of LTB4 and its isomers, ω-OH-LTB4 and 5-HETE, designed as Σ5LOX products (B).\nHuman neutrophils were isolated from freshly taken citrate-anticoagulated peripheral blood from healthy individuals using standard methods. Leukocyte-rich plasma was prepared by sedimentation of erythrocytes with 3% dextran T-500 at room temperature. For purification of granulocytes, centrifugation through Ficoll-Paque (density 1.077 g/mL) was used, followed by hypotonic lysis of the remaining erythrocytes. […] All methods were performed in accordance with the relevant instructions and regulations of the Ministry of Health of the Russian Federation and local legislation.\nBacteria (S. typhimurium IE 147 strain) obtained from the Collection of Gamaleya National Research Center of Epidemiology and Microbiology (Moscow, Russia) were grown in Luria–Bertani broth to a concentration of 1 × 10^9 colony-forming units (CFU)/mL. The bacteria were collected by centrifugation at 2000 g and opsonized immediately before the experiment for 30 min in 20% (v/v) fresh serum from the same donor whose blood was used to isolate neutrophils. Repeated centrifugation in Dulbecco’s solution was used to wash the bacteria.\nThe cell suspension (2 × 10^7 PMNLs in HBSS/HEPES, reaction volume of 6 mL) was cultured for 15 min in an incubator at 37 °C, 5% CO2. Then 1.0 µM ODN with or without 1.0 µM LRR11, or 2 µg/mL LPS, was added as indicated. After 20 min, the cells were stimulated with S. typhimurium (the ratio of bacteria to PMNLs was approximately 20:1) for the next 15 min [3]. The synthesis of 5-LOX metabolites was stopped by adding an equal volume of methanol at −20 °C with prostaglandin B2 as an internal standard. Samples were stored at −20 °C. The denatured cell suspension was centrifuged, and supernatants designated as water/methanol extracts.\nas §1\nTable S1. Effect of Chloroquine on 5-LOX product formation in PMNLs after ODN priming followed by the addition\nof opsonized S. typhimurium bacteria."}}, "note": "Oligonucleotides are written 5' to 3', each unit as a sugar letter and its base; * is a phosphorothioate linkage, no mark a phosphodiester; rarer units and linkages stand in square brackets, end groups in braces. Plain capitals give the bases only. d = 2'-deoxy (DNA)"}
{"molecule": "CNc1ccc2oc(C[C@H]3O[C@@]4(CC[C@H]3C)O[C@H]([C@H](C)C(=O)c3ccc[nH]3)[C@H](C)C[C@H]4C)nc2c1C(=O)O", "note": "[A23187]", "values": [{"measurement": "Σ 5-LOX metabolites", "setting": "[1]", "value": "416 ± 37", "unit": "ng/10^7 PMNLs"}]}
{"molecule": "LQTLDLRDNALTTIHFIPSIPD [URP, unrelated peptide with a random primary structure, negative control, reference compound]", "values": [{"measurement": "frequency reduction by URP", "setting": "5′-biotinylated C-CpG", "value": "no frequency reduction was occurred even after the addition of 100 nM URP"}, {"measurement": "interaction of URP with ODN", "setting": "5′-biotinylated B-CpG", "value": "absence of interactions between the URP and ODNs"}, {"measurement": "interaction of URP with ODN", "setting": "[2]", "value": "absence of interactions between the URP and ODNs"}, {"measurement": "unspecific binding to NeutrAvidin", "setting": "NeutrAvidin", "value": "no unspecific biding"}]}
{"molecule": "5′- ggGGACGACGTCGTGgggggg-3′ (DNA dG*dG*dGdGdAdCdGdAdCdGdTdCdGdTdGdG*dG*dG*dG*dG*dG) [A-CpG]", "values": [{"measurement": "effect on 5-LOX activity / leukotriene synthesis", "setting": "[3]; ODN alone, 1 µM, 20 min, then opsonized S. typhimurium 15 min, Figure 1, five independent experiments in duplicate", "value": "did not significantly affect 5-LOX activity"}, {"measurement": "Σ 5-LOX metabolites", "setting": "[3]; Table S1, 2×10^7 PMNLs, 15 min at 37 °C without or with 5 µM Chloroquine, then ODN, after 20 min 0.5×10^9 opsonized S. typhimurium for 15 min, mean ± SEM, three independent experiments", "value": "18.4 ± 2.1", "unit": "ng/107 PMNLs"}]}
